Data taken from patent publication US20260083122A1, “METHOD AND AGENT FOR INACTIVATING BACTERIA OR VIRUSES, AND ANTIVIRAL BASE MATERIAL USING SAME” (NISSAN MOTOR CO., LTD., priority 2022, published 2026).
Read-outs that look alike come from different tables or passages of the source.

What was measured:
[1] = biological target: T1, S-RBD-His(WT) (SARS-CoV-2 Spike Protein (RBD)) (Severe acute respiratory syndrome coronavirus 2, UniProt P0DTC2)
[2] = system: Escherichia coli (DH5a strain; AMP+); experiment: Measurement of minimum inhibitory concentration (MIC) against Escherichia coli (colony count); format: cell-based; settings: for CFU relative value: Comparative Example (0 mM) is 100
Experimental: First, Escherichia coli (DH5a strain; AMP+) was cultured with shaking in LB medium for 20 hours, and the obtained culture solution was used as an Escherichia coli stock solution. Then, the Escherichia coli stock solution was diluted 1000 times with PBS to obtain a diluted solution. In addition, this diluted solution was used as a comparative example.
On the other hand, AZADO^+NO3^− was added to the diluted solution obtained above to have a final concentration of 1 μM, 10 μM, 100 μM, 1 mM, or 10 mM, respectively, and the obtained mixture was allowed to stand at room temperature for 15 minutes. Thereafter, for the purpose of deactivating AZADO^+NO3^−, the diluted solution was further diluted 10 times using LB medium as a reaction stop solution. Finally, 25 μL of the reaction solution obtained in this manner was applied to LB agar medium, and cultured at 37° C. for 1 day. Then, the number of colonies on the agar medium after culture was counted, and the colony forming unit (CFU/mL) per mL was calculated. In addition, the “CFU relative value” described in Table 3 is a relative value when the value of the colony forming unit of Comparative Example is 100.

[3] = system: feline coronavirus (FCov (VR-989)); format: cell-based; settings: for Positive rate (CPE) / Number of wells when CPE is positive: 3 days culture
[4] = system: feline coronavirus (FCov (VR-989)); experiment: Antiviral effect of AZADO (CPE method; incubation at 37° C.); format: cell-based
[5] = system: feline coronavirus (FCov (VR-989)); experiment: Cell viability by WST-8 method in the 25° C. incubation experiment; format: cell-based; settings: cells cultured for 3 days after sample addition and medium replacement; virus alone about 50%
ovalbumin (OVA) = biological target: T2, ovalbumin (OVA) (Gallus gallus, UniProt P01012); experiment: Degradation activity on ovalbumin (electrophoresis, CBB staining); format: biochemical; settings: room temperature for 24 hours
T2 sequence (P01012 1-386): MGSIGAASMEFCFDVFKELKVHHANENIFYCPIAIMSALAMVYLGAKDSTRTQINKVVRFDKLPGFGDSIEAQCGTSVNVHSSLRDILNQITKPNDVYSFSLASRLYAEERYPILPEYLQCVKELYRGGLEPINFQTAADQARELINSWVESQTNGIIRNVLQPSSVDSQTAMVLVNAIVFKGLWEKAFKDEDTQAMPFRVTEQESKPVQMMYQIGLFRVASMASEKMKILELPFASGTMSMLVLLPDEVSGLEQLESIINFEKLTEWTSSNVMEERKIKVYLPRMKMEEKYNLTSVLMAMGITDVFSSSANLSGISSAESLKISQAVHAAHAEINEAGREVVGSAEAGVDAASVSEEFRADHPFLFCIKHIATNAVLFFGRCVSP

[6] = system: feline coronavirus (FCov (VR-989)); format: cell-based; settings: FCoV dilution series incubated with compound at room temperature for 2 hours; CRFK cells, 2 days culture
[7] = biological target: T1, S-RBD-His(WT) (SARS-CoV-2 Spike Protein (RBD)); remark: listed apart in the source
[8] = Standard redox potential by cyclic voltammetry; format: physicochemical; settings: reference electrode Ag/Ag^+, sweep rate 50 mV/s
Experimental: The standard redox potential is measured by cyclic voltammetry (CV) under a temperature condition of 25° C. At this time, the measurement is performed by a three-electrode method using a glassy carbon electrode (inner diameter: 3 mm) as a working electrode, a reference electrode (Ag/Ag^+), and a counter electrode (platinum wire), and the sweep rate of the potential is 50 mV/s. It is noted that the hydroxyamine forms of the compounds of the present invention are generally unstable and rapidly oxidized into nitroxyl radical forms. Thus, the value of the standard redox potential measured by the above method is the value between the nitroxyl radical form and the oxoammonium form.
In the cyclic voltammogram shown in FIG. 1, the cyclic voltammogram was stably maintained even after repeating 100 or more cycles of measurement, and thus it is observed that the compound of the present aspect has very high durability as an oxidizing agent.

[9] = system: Escherichia coli ATCC 43895, serotype 0157:H7
[10] = system: Staphylococcus aureus subsp. aureus NBRC 12732
[11] = system: Penicillium citrinum (NBRC 6352)

## O=[N+]([O-])[O-].O=[N+]1C2CC3CC(C2)CC1C3 [AZADO-Oxo]
[1]
  shift of fluorescence peak (binding amount between spike protein and ACE2): shifted to the left depending on the amount of AZADO-Oxo added
[2]; Escherichia coli, 15 minutes contact
  final concentration at which a remarkable inactivation effect was observed: ≥ 100 PM
[2]; final concentration 0.001 mM (0 mM: 1.21 × 10^8)
  colony forming unit: 1.28 × 10^8 CFU/mL
[2]; final concentration 0.001 mM
  CFU relative value: 105
[2]; final concentration 0.001 mM, room temperature 15 minutes (0 mM: 303)
  Number of colonies: 319
[2]; final concentration 0.01 mM
  colony forming unit: 1.25 × 10^8 CFU/mL
  CFU relative value: 103
[2]; final concentration 0.01 mM, room temperature 15 minutes
  Number of colonies: 313
[2]; final concentration 0.1 mM
  colony forming unit: 6.04 × 10^7 CFU/mL
  CFU relative value: 50
[2]; final concentration 0.1 mM, room temperature 15 minutes
  Number of colonies: 151
[2]; final concentration 1 mM
  colony forming unit: 0 CFU/mL
  CFU relative value: 0
[2]; final concentration 1 mM or more
  sterilization effect: ≥ 99%
[2]; final concentration 1 mM, room temperature 15 minutes
  Number of colonies: 0
[2]; final concentration 10 mM
  colony forming unit: 0 CFU/mL
  CFU relative value: 0
[2]; final concentration 10 mM, room temperature 15 minutes
  Number of colonies: 0
[3]; 48 hours after the addition of the sample solution, 25° C. incubation
  change of cell form to a round shape by virus (microscope): this form change is suppressed
[3]; AZADO-Oxo added, 25° C. incubation (no AZADO-Oxo: 5.2)
  logTCID50: 2.4
[3]; AZADO-Oxo added, 25° C. incubation (no AZADO-Oxo: 142262)
  TCID50: 253
[3]; AZADO-Oxo added, 25° C. incubation, viral load 10^−1
  Positive rate (CPE): 0%
[3]; AZADO-Oxo added, 25° C. incubation, viral load 10^−1, 8 wells
  Number of wells when CPE is positive: 0
[3]; AZADO-Oxo added, 25° C. incubation, viral load 10^−2
  Positive rate (CPE): 0%
[3]; AZADO-Oxo added, 25° C. incubation, viral load 10^−2, 8 wells
  Number of wells when CPE is positive: 0
[3]; AZADO-Oxo added, 25° C. incubation, viral load 10^−3
  Positive rate (CPE): 0%
[3]; AZADO-Oxo added, 25° C. incubation, viral load 10^−3, 8 wells
  Number of wells when CPE is positive: 0
[3]; AZADO-Oxo added, 25° C. incubation, viral load 10^−4
  Positive rate (CPE): 0%
[3]; AZADO-Oxo added, 25° C. incubation, viral load 10^−4, 8 wells
  Number of wells when CPE is positive: 0
[3]; AZADO-Oxo added, 25° C. incubation, viral load 10^−5
  Positive rate (CPE): 0%
[3]; AZADO-Oxo added, 25° C. incubation, viral load 10^−5, 7 wells
  Number of wells when CPE is positive: 0
[3]; AZADO-Oxo added, 25° C. incubation, viral load (relative value) 1
  Positive rate (CPE): 0%
[3]; AZADO-Oxo added, 25° C. incubation, viral load (relative value) 1, 7 wells
  Number of wells when CPE is positive: 0
[4]; AZADO-Oxo 2 mM added, 37° C. 2 hours (no AZADO-Oxo: 5.2)
  logTCID50: 2.4
[4]; AZADO-Oxo 2 mM added, 37° C. 2 hours (no AZADO-Oxo: 142262)
  TCID50: 253
[4]; AZADO-Oxo 2 mM, 37° C. 2 hours
  viral load reduced to (fraction): about 1/1000
[4]; AZADO-Oxo 2 mM, 37° C. 2 hours, 5.2-2.4
  Δ log TCID50: 2.8
[4]; AZADO-Oxo 2 mM, 37° C. 2 hours, viral load 10^−1
  Positive rate (CPE): 0%
[4]; AZADO-Oxo 2 mM, 37° C. 2 hours, viral load 10^−1, 8 wells
  Number of wells when CPE is positive: 0
[4]; AZADO-Oxo 2 mM, 37° C. 2 hours, viral load 10^−2
  Positive rate (CPE): 0%
[4]; AZADO-Oxo 2 mM, 37° C. 2 hours, viral load 10^−2, 8 wells
  Number of wells when CPE is positive: 0
[4]; AZADO-Oxo 2 mM, 37° C. 2 hours, viral load 10^−3
  Positive rate (CPE): 0%
[4]; AZADO-Oxo 2 mM, 37° C. 2 hours, viral load 10^−3, 8 wells
  Number of wells when CPE is positive: 0
[4]; AZADO-Oxo 2 mM, 37° C. 2 hours, viral load 10^−4
  Positive rate (CPE): 0%
[4]; AZADO-Oxo 2 mM, 37° C. 2 hours, viral load 10^−4, 8 wells
  Number of wells when CPE is positive: 0
[4]; AZADO-Oxo 2 mM, 37° C. 2 hours, viral load 10^−5
  Positive rate (CPE): 0%
[4]; AZADO-Oxo 2 mM, 37° C. 2 hours, viral load 10^−5, 7 wells
  Number of wells when CPE is positive: 0
[4]; AZADO-Oxo 2 mM, 37° C. 2 hours, viral load (relative value) 1
  Positive rate (CPE): 0%
[4]; AZADO-Oxo 2 mM, 37° C. 2 hours, viral load (relative value) 1, 7 wells
  Number of wells when CPE is positive: 0
[5]
  cell viability (WST-8 method): recovered the cell viability to the same level as the blank
Ovalbumin (OVA); 1 mg catalyst support or 3 μL of 100 mM AZADO-Oxo
  band of OVA in supernatant (CBB staining): almost eliminated
Ovalbumin (OVA); 2.5 μL of 100 mM AZADO-Oxo, with or without 2.5 μL of 100 mM cocatalyst
  band of OVA in supernatant (CBB staining), unsupported AZADO: elimination of a band of OVA (protein degradation activity) was confirmed
[6]
  cell viability (WST-8 method): recovery of cell viability decreased by virus addition was observed

## CC(=O)NC1CC(C)(C)[N+](=O)C(C)(C)C1.F[B-](F)(F)F [4-AcNH-TEMPO^+BF4^−]
[7]
  activity compared among the compounds (peak shift, MFI): almost equally strong
  antiviral activity (MFI) on extended treatment time: showed higher antiviral activity

## [O]N1C2CC3CC(C2)CC1C3 [AZADO, 2-azaadamantane-N-oxyl]
[8]
  standard redox potential (E^0@25° C.) between the nitroxyl radical form and the oxoammonium form: 236 mV

## F[B-](F)(F)F.O=[N+]1C2CC3CC(C2)CC1C3 [AZADO^+BF4^−]
[7]
  activity compared among the compounds (peak shift, MFI): almost equally strong
  antiviral activity (MFI) on extended treatment time: showed higher antiviral activity

## copper(II) nitrate
[9]
  viable cell ratio: did not decrease to 0%
[10]
  viable cell ratio: did not decrease after 5 minutes from the addition
[11]
  viable cell ratio: started to increase after 5 minutes from the addition

## O=[N+]([O-])[O-].[Ag+] [silver nitrate, reference compound]
[6]
  cell viability (WST-8 method): such a phenomenon was not observed

## CC1(C)CCCC(C)(C)N1[O] [TEMPO, 2,2,6,6-tetramethylpiperidine-N-oxyl]
[8]
  standard redox potential (E^0@25° C.) between the nitroxyl radical form and the oxoammonium form: 294 mV

## CC12CC3CC(CC(C3)N1[O])C2 [1-methyl AZADO]
[8]
  standard redox potential (E^0@25° C.) between the nitroxyl radical form and the oxoammonium form: 186 mV

## 1,3-dimethyl AZADO
[8]
  standard redox potential (E^0@25° C.) between the nitroxyl radical form and the oxoammonium form: 136 mV
